Earlier results in patent US5064812A, “Metal complexes of N-acetyl-glucosaminyl-N-acetyl-muramoyl-L-alanyl-D-isoglutaminyl-(L)-mes o-diamino-pimelyl-(D-amide)-(L)-D-alanyl-D-alanine and their use in pharmaceuticals” (Sour Pliva, priority 1986, dated 1991).

Experiments:
[1] = prior art literature
[2] = prior art literature; remark: listed apart in the source

N-acetyl-glucosaminyl-N-acetyl-muramoyl-L-alanyl-D-isoglutaminyl-(L)-meso- diamino-pimelyl-(D-amide)-(L)-D-alanyl-D-alanine [PMG]
immunostimulating activity [1]: significant immunostimulating
antimetastatic activity [2]: antimetastatic activity
